# Measured values reported in patent publication US20260273028A1, “PEROXIDASE COMPOSITIONS CONTAINING IMPROVED ENHANCING AGENTS” (FLEN HEALTH PHARMA NV, priority 2022, published 2026).
# Legend:
# [1] = system: Candida albicans ATCC®10231™; assay: MIC determination, broth microdilution, GOX+LPO with potentiator candidate; type: cell-based; conditions: C. albicans; enhancer 0.01%
# IL-6 = IL-6 secretion by THP-1-derived macrophages, ELISA; type: cell-based; conditions: 24 h
# Procedure: First, the effect on the secretion of these mediators by macrophages was evaluated. Secondly, the direct neutralization of already secreted mediators was evaluated. Both were measured by the state-of-the-art ELISA technique. First, the secretion of the pro-inflammatory mediator representatives IL-6, TNFa and MMP9 in cell culture supernatants by THP-1 (a monocytic cell line) after its differentiation into macrophages were measured. In brief, THP-1 cells were seeded at a density of 3×10^5 cells/cm^2 in a 6-well plate in the presence of 160 nM of phorbol-12-myristate-13-acetate (PMA) to induce macrophage differentiation. Differentiation was further conducted for 48 h. […] Supernatants were collected and centrifuged at 150 g for 5 min to remove cell debris and were kept at −20° C. before being processed for ELISA. IL-6, TNFa and MMP9 ELISA kits were purchased from BioTechne and the experiment was performed according to manufacturer's instructions. Briefly, 96-well plates were coated with capture antibodies overnight at room temperature. […] After several washing steps, the corresponding detection antibody, which is coupled to biotin, was incubated for 2 h. […] The reaction was stopped by the addition of sulphuric acid and absorbance at 450 nm was read with a plate reader. Absorbance is proportional to the concentration of analyte present in the medium, which was calculated based on a standard curve realized with recombinant IL-6, TNFa and MMP9.
# MMP9 = assay: Direct neutralization of secreted MMP9 in cell culture supernatants, ELISA; type: biochemical; conditions: isoleucine 0.05%; 3 h
# Procedure: First, the effect on the secretion of these mediators by macrophages was evaluated. Secondly, the direct neutralization of already secreted mediators was evaluated. Both were measured by the state-of-the-art ELISA technique. Secondly, the direct neutralization of secreted pro-inflammatory mediator representatives IL-6, TNFa and MMP9 was measured in parallel. In brief, cell culture supernatants were collected after 48 h of macrophage differentiation and were centrifuged at 150 g for 5 min to remove cell debris. […] Treated supernatants were kept frozen until being processed for ELISA. IL-6, TNFa and MMP9 ELISA kits were purchased from BioTechne and the experiment was performed according to manufacturer's instructions. Briefly, 96-well plates were coated with capture antibodies overnight at room temperature. […] After several washing steps, the corresponding detection antibody, which is coupled to biotin, was incubated for 2 h. […] The reaction was stopped by the addition of sulphuric acid and absorbance at 450 nm was read with a plate reader. Absorbance is proportional to the concentration of analyte present in the medium, which was calculated based on a standard curve realized with recombinant IL-6, TNFa and MMP9.
# S. aureus (ATCC®6538™) = assay: Microbial challenge testing in alginogel with GOX+EPO; type: cell-based; conditions: isoleucine 0.0025% (w/w)
# Procedure: In a further experiment, the efficacy of antimicrobial activity enhancement by isoleucine of the GOX combination with eosinophil peroxidase (EPO) was evaluated. In view hereof, a test was set up as described in the section on ‘challenge testing’ described above with the difference that EPO was used instead of LPO.
# In brief, microbial challenge testing was performed according to the method described in the European Pharmacopoeia current version chapter 5.1.3 ‘Efficacy of antimicrobial preservation’, but with adapted time points (0, 10, 20, 30, 40, 50, 60, 70 and 80 min instead of 0, 2, 7, 14 and 28 days). […] After preparation, a homogenous sample of 10 g was transferred into a 50 ml conical tube for each alginogel to be evaluated. […] Then, the 50 ml conical tubes containing the alginogel samples to be evaluated were inoculated with 100 μl of the designated inoculum and incubated at 25° C. for 80 minutes. At the start (time point 0) and after 0, 10, 20, 30, 40, 50, 60, 70 and 80 min, the number of viable microorganisms per gram product (expressed as CFU/g) was determined by transferring a sample of 0.5 g of the product into a 15 ml conical tube containing 4.5 ml of sterile diluent and applying general dilution and plate count techniques. For each combination evaluated, the absolute counts (expressed as log(CFU/g)) at each timepoint were visualized in a graph. […]
compound,measurement,setting,value
"CC[C@H](C)[C@H](N)C(=O)O [Isoleucine, isoleucine]",MIC: GOX+LPO enzyme solution needed to completely inhibit growth,[1],0.0000391 % (v/v)
same,increase in MIC compared to reference,[1],4 ×
same,increase in MIC compared to the enhancing molecule guaiacol,[1],2 ×
same,additional decrease in IL-6 secretion by macrophages vs GOX+LPO (1:1) alone,IL-6; isoleucine 0.0025%,7.6%
same,additional decrease in IL-6 secretion by macrophages vs GOX+LPO (1:1) alone,IL-6; isoleucine 0.05%,20.6%
same,additional decrease in IL-6 secretion by macrophages vs GOX+LPO (1:1) alone,IL-6; isoleucine 0.5%,33.6%
same,additional decrease of already secreted MMP9 (direct neutralization) vs GOX+LPO (1:1) alone,MMP9,27.1%
same,time to complete reduction of absolute S. aureus counts,S. aureus (ATCC®6538™),80 min
